Source: ChEMBL document CHEMBL2177021, “Flavaglines as potent anticancer and cytoprotective agents” (J Med Chem, 2012)
Activity calls are given as the source filed them. The calls are words filed in the database; no cut-off is given here.

Columns and labels:
[1] = system: H9c2; experiment: Cardioprotection in rat H9c2 cells assessed as reduction in doxorubicin-induced toxicity at 10 nM pre-treated 10 hrs before doxorubicin challenge and measured 14 hrs post doxorubicin challenge by propidium iodide and annexin V staining; format: functional, cell-based
[2] = system: H9c2; experiment: Cardioprotection in rat H9c2 cells assessed as reduction in doxorubicin-induced toxicity at 100 nM pre-treated 10 hrs before doxorubicin challenge and measured 14 hrs post doxorubicin challenge by propidium iodide and annexin V staining; format: functional, cell-based
[3] = system: HL-60; experiment: cells; settings: Homo sapiens, HL-60, 72 h
Description: Cytotoxicity against human HL60 cells incubated for 72 hrs by MTS assay

[4] = system: HCT-116; settings: Homo sapiens, HCT-116, 72 h
[5] = system: KB; settings: Homo sapiens, 72 h
[6] = Cytotoxicity against human HL60R cells overexpressing Pgp incubated for 72 hrs by MTS assay
[7] = species: Mus musculus; experiment: Cardioprotective effect in mouse assessed as attenuation of cardiomyocyte apoptosis by measuring reduction in mouse mortality; format: functional; design: scale not given: the % may be the effect or the level left
[8] = species: Mus musculus; experiment: Cardioprotective effect in mouse assessed as attenuation of cardiac fibrosis by measuring reduction in mouse mortality; format: functional, Heart; design: scale not given: the % may be the effect or the level left
[9] = species: Rattus norvegicus; experiment: Neuroprotection in Wistar rat DA neurons assessed as reduction in MPP+-induced neurotoxicity at 10 nM pre-treated 1 day before MPP+ by tyrosine hydroxylase detection based immunocytochemistry; format: functional
[10] = Toxicity in mouse cerebellar granule neurons assessed as induction of apoptosis at 0.25 to 10 nM incubated for 48 hrs by MTT assay; settings: cerebellar granule neurone, 0.01 µM
[11] = species: Rattus norvegicus; experiment: Neuroprotection in Wistar rat DA neurons assessed as reduction in MPP+-induced neurotoxicity at 1 nM pre-treated 1 day before MPP+ by tyrosine hydroxylase detection based immunocytochemistry; format: functional
[12] = species: Rattus norvegicus; experiment: Neuroprotection in Wistar rat DA neurons assessed as reduction in MPP+-induced neurotoxicity at 0.1 to 1000 nM pre-treated 1 day before MPP+ by tyrosine hydroxylase detection based immunocytochemistry; format: functional
[13] = species: Rattus norvegicus; experiment: Neuroprotection in Wistar rat DA neurons assessed as reduction in MPP+-induced neurotoxicity at 1 to 100 nM pre-treated 1 day before MPP+ by tyrosine hydroxylase detection based immunocytochemistry; format: functional
[14] = system: Cerebellar granule neurone; experiment: Neuroprotection in mouse cerebellar granule neurons assessed as reduction in cisplatin-induced neurotoxicity at 0.25 to 10 nM incubated simultaneously with cisplatin for 48 hrs by MTT assay; format: functional
[15] = system: Cerebellar granule neurone; experiment: Neuroprotection in mouse cerebellar granule neurons assessed as reduction in cisplatin-induced neurotoxicity at 1 to 5 nM incubated simultaneously with cisplatin for 48 hrs by MTT assay; format: functional
[16] = species: Rattus norvegicus; experiment: Neuroprotection in Wistar rat DA neurons assessed as reduction in MPP+-induced neurotoxicity at 1 to 1000 nM pre-treated 1 day before MPP+ by tyrosine hydroxylase detection based immunocytochemistry; format: functional
[17] = species: Rattus norvegicus; experiment: Neuroprotection in Wistar rat DA neurons assessed as reduction in MPP+-induced neurotoxicity at 100 nM pre-treated 1 day before MPP+ by tyrosine hydroxylase detection based immunocytochemistry; format: functional
[18] = system: Cerebellar granule neurone; experiment: Neuroprotection in mouse cerebellar granule neurons assessed as reduction in cisplatin-induced neurotoxicity at 5 nM incubated simultaneously with cisplatin for 48 hrs by MTT assay; format: functional
[19] = species: Rattus norvegicus; experiment: Neuroprotection in Wistar rat DA neurons assessed as reduction in MPP+-induced neurotoxicity at 10 uM pre-treated 1 day before MPP+ by tyrosine hydroxylase detection based immunocytochemistry; format: functional
[20] = system: Cerebellar granule neurone; experiment: Neuroprotection in mouse cerebellar granule neurons assessed as reduction in cisplatin-induced neurotoxicity at 10 nM incubated simultaneously with cisplatin for 48 hrs by MTT assay; format: functional

SMILES | Activity [1] | Activity [2] | IC50 [3] | IC50 [4] | IC50 [5] | IC50 [6] | also measured
COc1cc(OC)c2c(c1)O[C@@]1(c3ccc(Cl)cc3)[C@H](c3cccc(F)c3)C[C@H](NC=O)[C@@]21O | Active | Active | 13 nM | 8.2 nM | 10 nM |  | 
CC(=O)O[C@@]12CO[C@@H]1C[C@H](O)[C@@]1(C)C(=O)[C@H](O)C3=C(C)[C@@H](OC(=O)[C@H](O)[C@@H](NC(=O)OC(C)(C)C)c4ccccc4)C[C@@](O)([C@@H](OC(=O)c4ccccc4)[C@H]21)C3(C)C [DOCETAXEL] |  |  |  |  |  | 531 nM | 
COc1cc(OC)c2c(c1)O[C@@]1(c3ccc(Br)cc3)[C@H](c3ccccc3)C[C@@H](O)[C@@]21O | Active | Active | 3.8 nM | 5.8 nM | 2.4 nM | 4.5 nM | Activity [7]: 50%; Activity [8]: 50%; Activity [9]: Active
COc1cc(OC)c2c(c1)O[C@@]1(c3ccc(Br)cc3)[C@H](c3cccc(F)c3)C[C@H](NC(N)=O)[C@@]21O |  |  | 3.3 nM | 2.1 nM | 2.9 nM |  | 
CC[C@]1(O)C[C@@H]2CN(CCc3c([nH]c4ccccc34)[C@@](C(=O)OC)(c3cc4c(cc3OC)N(C)[C@H]3[C@@](O)(C(=O)OC)[C@H](OC(C)=O)[C@]5(CC)C=CCN6CC[C@]43[C@@H]65)C2)C1 [VINBLASTINE] |  |  |  |  |  | > 100 nM | 
COC(=O)[C@H]1[C@@H](O)[C@@]2(O)c3c(OC)cc(OC)cc3O[C@@]2(c2ccc(OC)cc2)[C@@H]1c1cccc(F)c1 |  |  | 20 nM | 5.2 nM | 9.9 nM | 28 nM | 
COc1cc(OC)c2c(c1)O[C@@]1(c3ccc(Br)cc3)[C@H](c3cccc(F)c3)C[C@H](NC(=O)N(C)C)[C@@]21O | Active | Active | 4.1 nM | 2.4 nM | 3.6 nM | 2.2 nM | Activity [10]: Non-toxic; Activity [11]: Active; Activity [12]: Active
COC(=O)[C@H]1[C@@H](O)[C@@]2(O)c3c(OC)cc(OC)cc3O[C@@]2(c2ccc(Br)cc2)[C@@H]1c1cccc(F)c1 |  |  | 3.2 nM | 2.4 nM | 2.8 nM | 14 nM | Activity [13]: Active
COc1cc(OC)c2c(c1)O[C@@]1(c3ccc(Br)cc3)[C@H](c3cccc(F)c3)C[C@H](NC(=O)CO)[C@@]21O | inactive | Active | 31 nM | 22 nM | 37 nM | 42 nM | 
COc1cc(OC)c2c(c1)O[C@@]1(c3ccc(Br)cc3)[C@H](c3cccc(F)c3)C[C@H](NC=O)[C@@]21O | Active |  | 3.4 nM | 1.9 nM | 3.5 nM | 1.4 nM | 
COC(=O)N[C@H]1C[C@@H](c2cccc(F)c2)[C@]2(c3ccc(Cl)cc3)Oc3cc(OC)cc(OC)c3[C@]12O |  | Active | 71 nM | 38 nM | 50 nM |  | Activity [12]: Active
COc1cc(OC)c2c(c1)O[C@@]1(c3ccc(Cl)cc3)[C@H](c3cccc(F)c3)C[C@H](NC(=O)N(C)C)[C@@]21O | Active | Active | 3.2 nM | 1.9 nM | 2.1 nM |  | Activity [9]: inactive
COc1cc(OC)c2c(c1)O[C@@]1(c3ccc(Br)cc3)[C@H](c3ccccc3)C[C@H](NC=O)[C@@]21O | Active |  |  |  |  | 1.7 nM | Activity [13]: Active; Activity [10]: Non-toxic; Activity [14]: Active; Activity [15]: Active; Activity [16]: Active
CCC(=O)N[C@H]1C[C@@H](c2cccc(F)c2)[C@]2(c3ccc(Br)cc3)Oc3cc(OC)cc(OC)c3[C@]12O | Active | inactive | 6.2 nM | 5.3 nM | 7.8 nM | 4.9 nM | 
COc1cc(OC)c2c(c1)O[C@@]1(c3ccc(Cl)cc3)[C@H](c3ccccc3)C[C@@H](O)[C@@]21O | Active | Active | 5.9 nM | 4.6 nM | 6.6 nM | 2.4 nM | 
COC(=O)[C@H]1[C@@H](O)[C@@]2(O)c3c(OC)cc(OC)cc3O[C@@]2(c2ccc(Cl)cc2)[C@@H]1c1ccccc1 |  |  | 29 nM | 19 nM | 2.4 nM | 13 nM | 
COc1cc(OC)c2c(c1)O[C@@]1(c3ccc(Br)cc3)[C@H](c3cccc(F)c3)C[C@@H](O)[C@@]21O | Active | Active | 8.9 nM | 5.3 nM | 10 nM | 3.1 nM | 
COc1cc(OC)c2c(c1)O[C@@]1(c3ccc(Br)cc3)[C@H](c3cccc(F)c3)C[C@H](NC(=O)CN(C)C)[C@@]21O | Active | Active | 4.8 nM | 5 nM | 5.8 nM | 5.6 nM | 
COc1cc(OC)c2c(c1)O[C@@]1(c3ccc(Br)cc3)[C@H](c3cccc(F)c3)[C@@H](C(N)=O)[C@@H](O)[C@@]21O | Active | inactive | 1.4 nM | 1.2 nM | 1.2 nM | 3.3 nM | 
COc1cc(OC)c2c(c1)O[C@@]1(c3ccc(Br)cc3)[C@H](c3cccc(F)c3)C[C@H](NC(C)=O)[C@@]21O | Active | inactive | 10 nM | 7.5 nM | 8.4 nM | 7.1 nM | 
COc1ccc([C@@]23Oc4cc(OC)cc(OC)c4[C@]2(O)[C@H](O)C[C@H]3c2cccc(F)c2)cc1 | Active | Active | 94 nM | 23 nM | 41 nM | 60 nM | Activity [17]: Active; Activity [10]: Non-toxic; Activity [18]: Active; Activity [19]: inactive; Activity [20]: inactive
